Measurements published in patent US20230123334A1, “AMINO LIPID COMPOUND, PREPARATION METHOD THEREFOR, AND APPLICATION THEREOF” (SHENZHEN SHENXIN BIOTECHNOLOGY CO., LTD., priority 2020, published 2023).

How the values were obtained:
HEK293 cells [1] = experiment: Preliminary screening as mRNA vectors, EGFP mRNA transfection of HEK293 cells; assay type: cell-based; details: HEK293 cells, 96-well plates, EGFP mRNA 50 ng per well; percentage of GFP fluorescent cells relative to total number of cells (Hoechst)
Summary of the method: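 Each well of HEK293 cells received 50 ng of EGFP mRNA. Efficiency was expressed as percent GFP-expressing cells over Hoechst-defined total cell number.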

HEK293 cells [2] = experiment: Preliminary screening as DNA vectors, GFP transfection of HEK293 cells; assay type: cell-based; details: HEK293 cells; lipid/DOPE liposome with 75 ng plasmid DNA (psin-EGFP-IRES-Puro); number of cells expressing GFP divided by total number of nuclei (Hoechst)
Summary of the method: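 Lipid + DOPE liposomes (NaOAc, pH 5.6) complexed w/ 75 ng psin-EGFP-IRES-Puro, 30 min RT; added to 3-5×10^4 HEK293/well, 37° C. Hoechst 0.2 μg/mL at 20-24 h, imaged after further 20-24 h. Efficiency = GFP+ cells / total nuclei.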

In the case of `CCCCCCCCCCCCCCCCSc1nc(NCCCN(C)C)nc(SCCCCCCCCCCCCCC)n1` [Compound S14S16D6], the “Absolute mRNA transfection efficiency in HEK293 cells” value (shortened to “Absolute mRNA transfection efficiency”) (HEK293 cells [1]) is reported as 0.9% and the “Absolute DNA transfection efficiency in HEK293 cells” value (from here on “Absolute DNA transfection efficiency”) (HEK293 cells [2]) is reported as 1.2%.

With `CCCCCCCCCCCCCCCCCCNc1nc(NCCCCCCCCCCCC)nc(NCCN2CCCCC2)n1` [Compound N12N18D4] the “Absolute mRNA transfection efficiency” value (HEK293 cells [1]) was 1.9% and the “Absolute DNA transfection efficiency” value (HEK293 cells [2]) was 0.9%.

With `CCCCCCCCCCCCCCCCNc1nc(NCCCCCCC)nc(NCCCN2CCOCC2)n1` [Compound N7N16D8] the “Absolute mRNA transfection efficiency” value (HEK293 cells [1]) was 0.0% and the “Absolute DNA transfection efficiency” value (HEK293 cells [2]) was 0.1%.

With `CCCCCCCCCCCCCCCCCCSc1nc(NCCN(CC)CC)nc(SCCCCCCCC)n1` [Compound S8S18D7] the “Absolute mRNA transfection efficiency” value (HEK293 cells [1]) was 3.8% and the “Absolute DNA transfection efficiency” value (HEK293 cells [2]) was 9.2%.

With `CCCCCCCCCCCCCCSc1nc(NCCN(C)C)nc(SCCCCCCCCCC)n1` [Compound S10S14D1] the “Absolute mRNA transfection efficiency” value (HEK293 cells [1]) was 0.1% and the “Absolute DNA transfection efficiency” value (HEK293 cells [2]) was 8.5%.

In the case of `CCCCCCCCCCCCCCCCSc1nc(NCCCN2CCN(C)CC2)nc(SCCCCCCCCCC)n1` [Compound S10S16D9], the “Absolute mRNA transfection efficiency” value (HEK293 cells [1]) is reported as 19.9% and the “Absolute DNA transfection efficiency” value (HEK293 cells [2]) is reported as 7.8%.

In the case of `CCCCCCCCCCCCCCCCNc1nc(NCCCCCCCCCCCCCCC)nc(NCCN(C)C)n1` [Compound N15N16D1], the “Absolute mRNA transfection efficiency” value (HEK293 cells [1]) is reported as 3.6% and the “Absolute DNA transfection efficiency” value (HEK293 cells [2]) is reported as 1.8%.

`CCCCCCCCCCCCCCCCCCSc1nc(NCCN(CC)CC)nc(SCCCCCCCCCCCCCCCCCC)n1` [Compound S18S18D7] was tested, and the “Absolute mRNA transfection efficiency” value (HEK293 cells [1]) was 0.0% and the “Absolute DNA transfection efficiency” value (HEK293 cells [2]) was 0.2%.

`CCCCCCCCCCCCSc1nc(NCC2CCN(C)CC2)nc(SCCCCCCCCCCCC)n1` [Compound S12S12D10] was tested, and the “Absolute mRNA transfection efficiency” value (HEK293 cells [1]) was 12.8% and the “Absolute DNA transfection efficiency” value (HEK293 cells [2]) was 2.7%.

`CCCCCCCCCCCCCCCNc1nc(NCCCCCCCCCCCC)nc(NCCN2CCOCC2)n1` [Compound N12N15D2] was tested, and the “Absolute mRNA transfection efficiency” value (HEK293 cells [1]) was 0.4% and the “Absolute DNA transfection efficiency” value (HEK293 cells [2]) was 0.3%.

`CCCCCCCCCCCCCCCNc1nc(NCCN2CCCCC2)nc(N(CCCCCCCCCCCC)CCCCCCCCCCCC)n1` [N15^2N12D4] was tested, and the “Absolute mRNA transfection efficiency” value (HEK293 cells [1]) was 2.9% and the “Absolute DNA transfection efficiency” value (HEK293 cells [2]) was 2.1%.

With `CCCCCCCCCCCCCCCCSc1nc(NCCCN2CCN(C)CC2)nc(SCCCCCCCCCCCCCCCC)n1` [Compound S16S16D9] the “Absolute mRNA transfection efficiency” value (HEK293 cells [1]) was 0.2% and the “Absolute DNA transfection efficiency” value (HEK293 cells [2]) was 0.5%.

With `CCCCCCCCCCCCCCCCNc1nc(NCCCCCCCCCCCC)nc(NCCN2CCCCC2)n1` [Compound N12N16D4] the “Absolute mRNA transfection efficiency” value (HEK293 cells [1]) was 0.7% and the “Absolute DNA transfection efficiency” value (HEK293 cells [2]) was 1.2%.

`CCCCCCCCCCCCCCCCCCSc1nc(NCCN2CCCC2)nc(SCCCCCCCCCCCCCCCC)n1` [Compound S16S18D3] was tested, and the “Absolute mRNA transfection efficiency” value (HEK293 cells [1]) was 1.8% and the “Absolute DNA transfection efficiency” value (HEK293 cells [2]) was 1.9%.

For `CCCCCCCCCCCCCNc1nc(NCCCCCC)nc(NCCN(C)C)n1` [Compound N6N13D1], the “Absolute mRNA transfection efficiency” value (HEK293 cells [1]) was 0.0% and the “Absolute DNA transfection efficiency” value (HEK293 cells [2]) was 0.0%.

With `CCCCCCCCNc1nc(NCCCCCC)nc(NCCCN2CCN(C)CC2)n1` [Compound N6N8D9] the “Absolute mRNA transfection efficiency” value (HEK293 cells [1]) was 0.0% and the “Absolute DNA transfection efficiency” value (HEK293 cells [2]) was 0.0%.

With `CCCCCCCCCCCSc1nc(NCCN2CCCC2)nc(SCCCCCCCCCCC)n1` [Compound S11S11D3] the “Absolute mRNA transfection efficiency” value (HEK293 cells [1]) was 3.6% and the “Absolute DNA transfection efficiency” value (HEK293 cells [2]) was 6.5%.

With `CCCCCCCCCCCCCCCCCCSc1nc(NCCCN2CCN(C)CC2)nc(SCCCCCCCCCC)n1` [Compound S10S18D9] the “Absolute mRNA transfection efficiency” value (HEK293 cells [1]) was 2.4% and the “Absolute DNA transfection efficiency” value (HEK293 cells [2]) was 6.5%.

For `CCCCCCCCCCCCCNc1nc(NCCN(C)C)nc(N(CCCCCCCCCCCC)CCCCCCCCCCCC)n1` [N13^2N12D1], the “Absolute mRNA transfection efficiency” value (HEK293 cells [1]) was 4.7% and the “Absolute DNA transfection efficiency” value (HEK293 cells [2]) was 1.2%.

In the case of `CCCCCCCCCCSc1nc(NCCN2CCCC2)nc(SCCCCCCCCCC)n1` [Compound S10S10D3], the “Absolute mRNA transfection efficiency” value (HEK293 cells [1]) is reported as 5.0% and the “Absolute DNA transfection efficiency” value (HEK293 cells [2]) is reported as 13.6%.

With `CCCCCCCCCCCCCCCCNc1nc(NCCCCCCCCCCCC)nc(NCCN2CCOCC2)n1` [Compound N12N16D2] the “Absolute mRNA transfection efficiency” value (HEK293 cells [1]) was 0.0% and the “Absolute DNA transfection efficiency” value (HEK293 cells [2]) was 0.9%.

`CCCCCCCCCCCCCCSc1nc(NCCN2CCCC2)nc(SCCCCCCCCCCCC)n1` [Compound S12S14D3] was tested, and the “Absolute mRNA transfection efficiency” value (HEK293 cells [1]) was 6.3% and the “Absolute DNA transfection efficiency” value (HEK293 cells [2]) was 6.5%.

For `CCCCCCCCCCCCN(CCCCCCCCCCCC)c1nc(NCCCCCCCCC)nc(NCCN(CC)CC)n1` [N9^2N12D7], the “Absolute mRNA transfection efficiency” value (HEK293 cells [1]) was 0.2% and the “Absolute DNA transfection efficiency” value (HEK293 cells [2]) was 0.0%.

`CCCCCCCCCCCCCCCCNc1nc(NCCCCCCCCCCCC)nc(NCCCN2CCN(C)CC2)n1` [Compound N12N16D9] was tested, and the “Absolute mRNA transfection efficiency” value (HEK293 cells [1]) was 0.7% and the “Absolute DNA transfection efficiency” value (HEK293 cells [2]) was 0.9%.
